Assay results as given in ChEMBL document CHEMBL5584341, “Discovery of Potent, Specific, and Orally Available NLRP3 Inflammasome Inhibitors Based on Pyridazine Scaffolds for the Treatment of Septic Shock and Peritonitis” (J Med Chem, 2024).
Calls of active or inactive are those of the source. The rule behind the calls is not given here.

How the values were obtained:
[1] = Inhibition of IL-1beta release in PMA-differentiated/ LPS and nigericin stimulated human THP-1 cells pretreated with LPS for 3 hrs followed by incubation with compound for 40 mins and later stimulated with nigericin for 40 mins by ELISA; type: functional, cell-based
[2] = Metabolic stability in human liver microsomes assessed as half life at 10 uM […] in presence of NADPH by LC-MS/MS analysis; type: ADME, Microsome
[3] = Metabolic stability in human liver microsomes assessed as intrinsic clearance per g protein at 10 uM […] in presence of NADPH by LC-MS/MS analysis; type: ADME, Microsome
[4] = Tmax in BALB/c mouse at 5 mg/kg, po measured upto 24 hrs by LC-MS/MS analysis; type: ADME, organism-based; conditions: in vivo
[5] = Cmax in BALB/c mouse at 5 mg/kg, po measured upto 24 hrs by LC-MS/MS analysis; type: ADME, organism-based; conditions: in vivo
[6] = MRT(0 to t) in BALB/c mouse at 5 mg/kg, po measured upto 24 hrs by LC-MS/MS analysis; type: ADME, organism-based; conditions: in vivo
AML12 = experiment: Cytotoxicity against mouse AML12 cells at 5 uM incubated for 72 hrs by MTT assay; type: toxicity, cell-based; conditions: aml12, 72 h
LX-2 = experiment: Cytotoxicity against human LX-2 cells at 20 uM incubated for 72 hrs by MTT assay; type: toxicity, cell-based; conditions: lx-2, 72 h
Cytochrome P450 3A4 = Cytochrome P450 3A4 (Homo sapiens, UniProt P08684); experiment: Inhibition of human CYP3A4 upto 10 uM relative to control; type: ADME
Cytochrome P450 2C19 = Cytochrome P450 2C19 (Homo sapiens, UniProt P33261); experiment: Inhibition of human CYP2C19 upto 10 uM relative to control; type: ADME
[7] = target: NACHT, LRR and PYD domains-containing protein 3 (Mus musculus, UniProt Q8R4B8); experiment: Inhibition of NLRP3 inflammasome activation in LPS/nigericin stimulated mouse BMDMs assessed as reduction in IL-1beta release pretreated with LPS for 3 hrs followed by compound addition for 40 mins prior to nigericin stimulation for 40 mins by ELISA; type: cell-based, BMDM
[8] = target: NACHT, LRR and PYD domains-containing protein 3 (Mus musculus) (UniProt Q8R4B8); experiment: Inhibition of NLRP3 inflammasome activation in LPS/nigericin stimulated mouse BMDMs assessed as reduction in IL-1beta release pretreated with LPS for 3 hrs followed by compound addition for 40 mins prior to nigericin stimulation for 40 mins by Western blotting analysis; type: cell-based; conditions: BMDM, time 80.0 min
[9] = target: NACHT, LRR and PYD domains-containing protein 3 (Mus musculus) (UniProt Q8R4B8); experiment: Inhibition of NLRP3 inflammasome activation in LPS/nigericin stimulated mouse BMDMs assessed as effect on pro-IL-1beta expression pretreated with LPS for 3 hrs followed by compound addition for 40 mins prior to nigericin stimulation for 40 mins by Western blotting analysis; type: cell-based; conditions: BMDM, time 80.0 min
[10] = target: NACHT, LRR and PYD domains-containing protein 3 (Mus musculus) (UniProt Q8R4B8); experiment: Inhibition of NLRP3 inflammasome activation in LPS/nigericin stimulated mouse BMDMs assessed as effect on NLRP3 expression pretreated with LPS for 3 hrs followed by compound addition for 40 mins prior to nigericin stimulation for 40 mins by Western blotting analysis; type: cell-based; conditions: BMDM, time 80.0 min
[11] = target: NACHT, LRR and PYD domains-containing protein 3 (Mus musculus) (UniProt Q8R4B8); experiment: Inhibition of LPS/nigericin induced NLRP3 inflammasome activation in mouse BMDMs assessed as reduction in pyroptosis by measuring […] at 2 to 31.25 nM; type: cell-based; conditions: BMDM, dose 2-31.25 nM
[12] = target: NACHT, LRR and PYD domains-containing protein 3 (Mus musculus) (UniProt Q8R4B8); experiment: Inhibition of NLRP3 inflammasome activation in mouse BMDMs assessed as effect on pro-IL-1beta expression at 2 to 31.25 nM pretreated with compound for 40 mins followed by LPS/nigericin stimulation; type: cell-based; conditions: BMDM, dose 2-31.25 nM
[13] = target: NACHT, LRR and PYD domains-containing protein 3 (Mus musculus) (UniProt Q8R4B8); experiment: Inhibition of NLRP3 inflammasome activation in mouse BMDMs assessed as effect on pro-IL-1beta expression at 2 to 31.25 nM pretreated with LPS for 3 hrs followed by compound addition for 40 mins; type: cell-based; conditions: BMDM, dose 2-31.25 nM
BMDM = experiment: Reduction in LDH release in LPS/nigericin stimulated mouse BMDMs at 5 to 80 nM; type: functional, cell-based; conditions: dose 5-80 nM
[14] = target: NACHT, LRR and PYD domains-containing protein 3 (Mus musculus) (UniProt Q8R4B8); experiment: Inhibition of NLRP3 inflammasome activation in LPS stimulated mouse BMDMs assessed as reduction in IL-1beta release at 2 to 31.25 nM pretreated with LPS for 3 hrs followed by compound addition for 40 mins prior to ATP stimulation for 1 hr by ELISA; type: cell-based; conditions: BMDM, dose 2-31.25 nM, time 100.0 min
[15] = target: NACHT, LRR and PYD domains-containing protein 3 (Mus musculus) (UniProt Q8R4B8); experiment: Inhibition of NLRP3 inflammasome activation in LPS stimulated mouse BMDMs assessed as reduction in IL-1beta release at 2 to 31.25 nM pretreated with LPS for 3 hrs followed by compound addition for 40 mins prior to alum stimulation for 6 hrs by ELISA; type: cell-based; conditions: BMDM, dose 2-31.25 nM, time 400.0 min
[16] = target: NLR family CARD domain-containing protein 4 (Mus musculus) (UniProt Q3UP24); experiment: Inhibition of flagellin stimulated NLRC4 inflammasome activation in mouse BMDMs assessed as reduction in IL-1beta secretion at 0.1 to 10 uM pretreated with LPS for 3 hrs followed by compound addition for 40 mins prior to flagellin stimulation for 6 hrs by ELISA; type: cell-based; conditions: BMDM, dose 0.1-10 µM, time 400.0 min
[17] = target: T1, Interferon-inducible protein AIM2 (Mus musculus) (UniProt Q91VJ1); experiment: Inhibition of poly dA:dT stimulated AIM2 inflammasome activation in mouse BMDMs assessed as reduction in IL-1beta secretion at 0.1 to 10 uM pretreated with LPS for 3 hrs followed by compound addition for 40 mins prior to poly dA:dT stimulation for 6 hrs by ELISA; type: cell-based; conditions: BMDM, dose 0.1-10 µM, time 400.0 min
T1 sequence (whole entry): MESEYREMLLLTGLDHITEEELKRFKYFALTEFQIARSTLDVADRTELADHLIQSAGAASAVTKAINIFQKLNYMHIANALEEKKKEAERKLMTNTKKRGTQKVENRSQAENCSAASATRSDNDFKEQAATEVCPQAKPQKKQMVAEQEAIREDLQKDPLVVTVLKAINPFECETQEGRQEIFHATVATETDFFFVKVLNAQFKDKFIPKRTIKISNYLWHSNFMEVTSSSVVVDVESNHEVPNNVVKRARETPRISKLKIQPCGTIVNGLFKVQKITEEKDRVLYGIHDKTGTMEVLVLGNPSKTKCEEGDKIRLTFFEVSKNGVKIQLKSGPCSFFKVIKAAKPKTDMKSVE

[18] = target: T1, Interferon-inducible protein AIM2 (Mus musculus); experiment: Inhibition of poly dA:dT stimulated AIM2 inflammasome activation in mouse BMDMs assessed as reduction in IL-1beta secretion pretreated with LPS for 3 hrs followed by compound addition for 40 mins prior to poly dA:dT stimulation for 6 hrs by Western blotting analysis; type: cell-based; conditions: BMDM, time 400.0 min
Mus musculus [19] = experiment: Antiinflammatory activity against LPS induced septic shock in BALB/c mouse assessed as reduction in TNFalpha level at 25 mg/kg, ip pretreated for 1 hr followed by LPS stimulation and measured after 3 hrs by ELISA; type: functional, organism-based; conditions: time 4.0 hrs
Mus musculus [20] = experiment: Inhibition of MSU crystal induced peritonitis in BALB/c mouse assessed as reduction in IL-1beta level in peritoneal lavage fluids at 50 to 100 mg/kg, ip pretreated with LPS for 3 hrs followed by compound addition prior to MSU stimulation for 6 hrs by ELISA; type: functional, organism-based; conditions: dose 50-100 mg/kg

Chain of NACHT, LRR and PYD domains-containing protein 3 (Mus musculus) (Q8R4B8 whole entry, the tested form may be a part): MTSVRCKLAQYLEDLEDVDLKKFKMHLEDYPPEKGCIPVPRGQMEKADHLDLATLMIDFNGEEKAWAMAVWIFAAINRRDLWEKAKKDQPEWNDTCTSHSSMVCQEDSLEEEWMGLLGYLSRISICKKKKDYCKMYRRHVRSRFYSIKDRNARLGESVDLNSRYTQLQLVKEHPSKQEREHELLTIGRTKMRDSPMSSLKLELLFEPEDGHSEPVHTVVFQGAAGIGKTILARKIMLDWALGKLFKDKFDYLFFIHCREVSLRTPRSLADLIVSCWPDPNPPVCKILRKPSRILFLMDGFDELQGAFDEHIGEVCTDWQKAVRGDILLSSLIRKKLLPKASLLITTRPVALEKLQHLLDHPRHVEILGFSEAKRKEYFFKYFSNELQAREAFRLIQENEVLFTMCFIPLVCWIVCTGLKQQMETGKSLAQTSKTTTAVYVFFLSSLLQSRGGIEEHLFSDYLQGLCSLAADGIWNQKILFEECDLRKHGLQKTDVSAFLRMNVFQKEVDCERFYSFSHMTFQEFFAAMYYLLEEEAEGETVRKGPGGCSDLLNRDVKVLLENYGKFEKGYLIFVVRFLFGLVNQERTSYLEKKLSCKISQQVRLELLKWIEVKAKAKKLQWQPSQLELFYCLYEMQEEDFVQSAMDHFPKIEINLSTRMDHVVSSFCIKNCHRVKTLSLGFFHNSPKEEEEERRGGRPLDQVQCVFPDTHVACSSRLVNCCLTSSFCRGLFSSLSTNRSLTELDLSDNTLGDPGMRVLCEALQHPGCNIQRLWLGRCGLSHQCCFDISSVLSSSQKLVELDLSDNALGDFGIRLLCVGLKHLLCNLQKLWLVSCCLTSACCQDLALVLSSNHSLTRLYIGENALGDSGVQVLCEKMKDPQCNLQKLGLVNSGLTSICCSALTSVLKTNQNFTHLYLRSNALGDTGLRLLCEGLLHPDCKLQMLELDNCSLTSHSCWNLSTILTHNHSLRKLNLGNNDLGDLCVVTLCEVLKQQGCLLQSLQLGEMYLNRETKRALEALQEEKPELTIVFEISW
Chain of Cytochrome P450 3A4 (P08684 whole entry): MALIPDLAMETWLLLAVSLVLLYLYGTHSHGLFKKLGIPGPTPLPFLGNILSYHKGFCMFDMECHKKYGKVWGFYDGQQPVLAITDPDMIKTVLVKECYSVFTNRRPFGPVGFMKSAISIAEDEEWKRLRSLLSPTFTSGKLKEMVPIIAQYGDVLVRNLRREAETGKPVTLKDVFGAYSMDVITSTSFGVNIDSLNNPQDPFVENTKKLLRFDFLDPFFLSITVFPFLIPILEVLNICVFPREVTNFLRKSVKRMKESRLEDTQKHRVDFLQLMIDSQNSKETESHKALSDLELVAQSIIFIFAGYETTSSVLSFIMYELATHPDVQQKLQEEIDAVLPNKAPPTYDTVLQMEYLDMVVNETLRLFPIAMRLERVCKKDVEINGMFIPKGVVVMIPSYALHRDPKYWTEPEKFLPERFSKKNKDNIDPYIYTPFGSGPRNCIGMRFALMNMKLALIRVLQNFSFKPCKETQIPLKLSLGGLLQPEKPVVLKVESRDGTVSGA
Chain of NACHT, LRR and PYD domains-containing protein 3 (Q8R4B8 whole entry, the tested form may be a part): as the sequence (Q8R4B8 whole entry, the tested form may be a part) above
Chain of NLR family CARD domain-containing protein 4 (Mus musculus) (Q3UP24 whole entry, the tested form may be a part): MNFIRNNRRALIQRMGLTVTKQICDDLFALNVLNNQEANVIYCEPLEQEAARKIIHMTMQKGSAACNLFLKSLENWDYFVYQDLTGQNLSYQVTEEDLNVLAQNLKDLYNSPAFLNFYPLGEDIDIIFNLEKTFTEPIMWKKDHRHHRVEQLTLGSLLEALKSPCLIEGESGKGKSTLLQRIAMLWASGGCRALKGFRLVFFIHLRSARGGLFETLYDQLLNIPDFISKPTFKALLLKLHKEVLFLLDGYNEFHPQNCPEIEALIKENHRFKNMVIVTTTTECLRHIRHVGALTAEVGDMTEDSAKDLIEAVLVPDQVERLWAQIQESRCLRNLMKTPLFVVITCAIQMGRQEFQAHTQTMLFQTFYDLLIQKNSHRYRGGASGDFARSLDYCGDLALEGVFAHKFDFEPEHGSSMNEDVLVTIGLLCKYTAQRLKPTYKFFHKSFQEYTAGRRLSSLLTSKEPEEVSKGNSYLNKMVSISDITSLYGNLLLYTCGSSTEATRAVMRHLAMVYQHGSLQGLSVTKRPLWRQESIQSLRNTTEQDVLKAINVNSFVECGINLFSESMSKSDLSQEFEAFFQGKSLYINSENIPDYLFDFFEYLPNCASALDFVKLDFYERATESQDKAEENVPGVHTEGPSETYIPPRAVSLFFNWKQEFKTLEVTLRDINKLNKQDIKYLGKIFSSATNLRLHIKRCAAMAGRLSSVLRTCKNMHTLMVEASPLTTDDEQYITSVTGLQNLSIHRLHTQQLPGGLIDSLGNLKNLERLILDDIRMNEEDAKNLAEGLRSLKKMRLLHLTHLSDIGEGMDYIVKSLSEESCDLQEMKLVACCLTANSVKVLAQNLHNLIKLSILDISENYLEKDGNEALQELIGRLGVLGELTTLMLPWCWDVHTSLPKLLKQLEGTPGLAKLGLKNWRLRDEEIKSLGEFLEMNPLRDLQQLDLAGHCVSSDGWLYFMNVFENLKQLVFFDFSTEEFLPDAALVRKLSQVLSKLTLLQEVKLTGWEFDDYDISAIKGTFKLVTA
Chain of Cytochrome P450 2C19 (P33261 whole entry, the tested form may be a part): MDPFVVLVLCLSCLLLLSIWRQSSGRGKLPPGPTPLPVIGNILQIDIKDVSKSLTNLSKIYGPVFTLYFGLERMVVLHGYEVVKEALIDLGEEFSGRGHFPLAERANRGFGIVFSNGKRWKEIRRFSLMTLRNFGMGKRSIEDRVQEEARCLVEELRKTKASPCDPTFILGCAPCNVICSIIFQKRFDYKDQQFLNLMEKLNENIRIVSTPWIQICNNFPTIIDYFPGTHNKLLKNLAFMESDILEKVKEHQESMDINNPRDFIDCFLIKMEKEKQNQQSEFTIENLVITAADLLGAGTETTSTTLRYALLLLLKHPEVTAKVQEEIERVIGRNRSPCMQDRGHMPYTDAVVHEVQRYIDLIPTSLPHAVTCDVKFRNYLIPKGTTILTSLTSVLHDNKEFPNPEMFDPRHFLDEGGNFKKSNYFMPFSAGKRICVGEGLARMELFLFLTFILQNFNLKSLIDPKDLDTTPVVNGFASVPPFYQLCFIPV

`OCCN1CCC[C@@H](Nc2nnc(-c3ccc4occc4c3O)c3c2C2CCC3CC2)C1` showed an IC50 [1] of 3 nM, a half-life at 10 µM [2] of over 2 h and an intrinsic clearance [3] of under 12 mL/min. For the same compound, the Tmax [4] was 1.83 h, the Cmax [5] was 0.746 µg/mL and the MRT last at 24 h [6] was 6.07 h. The Activity (AML12) was “Non-Toxic”, the Activity (LX-2) was “Toxic” and the “inhibition (INH)” value (Cytochrome P450 3A4) was “Not Active”. For the same compound, the “inhibition (INH)” value (Cytochrome P450 2C19) was “Not Active”, the IC50 [7] was 15.3 nM and the inhibition [8] was “Dose-Dependent Effect”. For the same compound, the inhibition [9] was “inactive”, the inhibition [10] was “inactive” and the inhibition [11] was “Active”. For the same compound, the inhibition [12] was “inactive”, the inhibition [13] was “inactive” and the Activity (BMDM) was “Dose-Dependent Effect”. For the same compound, the inhibition [14] was “Active”, the inhibition [15] was “Active” and the inhibition [16] was “inactive”. The inhibition [17] was “inactive”, the inhibition [18] was “inactive” and the Activity (Mus musculus [19]) was “Active”. The inhibition (Mus musculus [20]) was “Active”.
